± gives the expanded uncertainty stated by the source.
What was measured:
[1] = molar heat capacity at constant pressure; conditions: 101.33 kPa, Small sample (50 mg) DSC
[2] = for Triple point temperature: Crystal 2, DTA; for vapor or sublimation pressure: Crystal, Calculated from knudsen effusion weight loss
[3] = Molar enthalpy of transition or fusion; conditions: Crystal 2; DSC

CC(C)c1nc2ccccc2[nH]1 [1H-benzimidazole, 2-(1-methylethyl)-]
[1]
Conditions	molar heat capacity at constant pressure [J/K/mol]
268.15 K, Crystal 2	197 ± 3.9
270.15 K, Crystal 2	199 ± 4
275.15 K, Crystal 2	202.8 ± 4.1
280.15 K, Crystal 2	206.9 ± 4.1
285.15 K, Crystal 2	210.8 ± 4.2
290.15 K, Crystal 2	214.4 ± 4.3
295.15 K, Crystal 2	218.7 ± 4.4
298.15 K, Crystal 2	220.6 ± 4.4
300.15 K, Crystal 2	221.7 ± 4.4
305.15 K, Crystal 2	224.5 ± 4.5
310.15 K, Crystal 2	228 ± 4.6
315.15 K, Crystal 2	230.9 ± 4.6
320.15 K, Crystal 2	234.6 ± 4.7
325.15 K, Crystal 2	238 ± 4.8
330.15 K, Crystal 2	240.7 ± 4.8
335.15 K, Crystal 2	245.2 ± 4.9
340.15 K, Crystal 2	248.9 ± 5
345.15 K, Crystal 2	252.7 ± 5
350.15 K, Crystal 2	256 ± 5.1
355.15 K, Crystal 2	260 ± 5.2
360.15 K, Crystal 2	264 ± 5.3
365.15 K, Crystal 2	267.4 ± 5.3
370.15 K, Crystal 2	272 ± 5.4
375.15 K, Crystal 2	276.3 ± 5.5
380.15 K, Crystal 2	280.1 ± 5.6
385.15 K, Crystal 2	284.6 ± 5.7
425.15 K, Crystal 1	285.7 ± 5.7
430.15 K, Crystal 1	288.4 ± 5.8
435.15 K, Crystal 1	292.2 ± 5.8
440.15 K, Crystal 1	298.2 ± 6
445.15 K, Crystal 1	301.3 ± 6
450.15 K, Crystal 1	308.5 ± 6.2
455.15 K, Crystal 1	310.9 ± 6.2
460.15 K, Crystal 1	314.8 ± 6.3
463.15 K, Crystal 1	316.2 ± 6.3

Conditions	Molar enthalpy of transition or fusion [kcal/mol]	Triple point temperature [K]
[2]	–	410.4 ± 0.4
[3]	0.239 ± 0.0478	–

CCCc1nc2ccccc2[nH]1 [1H-benzimidazole, 2-propyl-]
[1]
Conditions	molar heat capacity at constant pressure [J/K/mol]
268.15 K, Crystal 2	190.5 ± 3.8
270.15 K, Crystal 2	192.6 ± 3.9
275.15 K, Crystal 2	197.1 ± 3.9
280.15 K, Crystal 2	201.5 ± 4
285.15 K, Crystal 2	206.1 ± 4.1
290.15 K, Crystal 2	210.1 ± 4.2
295.15 K, Crystal 2	214.4 ± 4.3
298.15 K, Crystal 2	217.1 ± 4.3
300.15 K, Crystal 2	218.7 ± 4.4
305.15 K, Crystal 2	223.2 ± 4.5
310.15 K, Crystal 2	228.3 ± 4.6
315.15 K, Crystal 2	234 ± 4.7
320.15 K, Crystal 2	239.7 ± 4.8
325.15 K, Crystal 2	245.7 ± 4.9
330.15 K, Crystal 2	252.2 ± 5
335.15 K, Crystal 2	258.6 ± 5.2
340.15 K, Crystal 2	263.7 ± 5.3
345.15 K, Crystal 2	268.3 ± 5.4
350.15 K, Crystal 2	274.9 ± 5.5
355.15 K, Crystal 2	282.4 ± 5.7
360.15 K, Crystal 2	292.6 ± 5.8
365.15 K, Crystal 2	306.3 ± 6.1
400.15 K, Crystal 1	280.1 ± 5.6
405.15 K, Crystal 1	285.2 ± 5.7
410.15 K, Crystal 1	290.7 ± 5.8
415.15 K, Crystal 1	297.5 ± 6
420.15 K, Crystal 1	306.5 ± 6.1

[2]
Conditions	vapor or sublimation pressure [kPa]
344.53 K	4.28e-05 ± 2.2e-06
352.14 K	9.52e-05 ± 4.8e-06
355.33 K	0.000131 ± 7e-06
362.01 K	0.000266 ± 1.3e-05
364.33 K	0.000324 ± 1.6e-05

Conditions	Molar enthalpy of transition or fusion [kcal/mol]	Triple point temperature [K]
[2]	–	385.8 ± 0.5
[3]	0.359 ± 0.0478	–

Reference: the NIST ThermoML archive (doi:10.1016/j.jct.2004.03.005)
